We go through 10 compounds from patent US12033725B2, “Antimicrobial peptides and related methods” (GEORGE MASON UNIVERSITY, priority 2021, dated 2024).

In general, EC50 refers to the concentration at which the effect is half-maximal. In general, MIC refers to the lowest concentration that inhibits growth of the organism.

≈ marks a conversion by molar mass, not a printed value. Entries after “also recorded” stand apart in the source; their conditions may differ. Read-outs that look alike come from different tables or passages of the source. Bridge positions count the residues as written; N and C are the ends. Ends that are not written are not given here. Peptide text beside a SMILES is read from it. Bounds are passed on as bounds.

The subject of series [1] is human red blood cells. How it is done:
To measure the hemolytic activity of peptides, 2% human red blood cells were added to various dilutions of peptide reconstituted in PBS in a sterile U-bottom polystyrene 96 well plate (Dean et al., 2011). The commercially obtained, deidentified human RBCs (BIOIVT Westbury, NY) were prepared as follows: 1 mL of K2EDTA whole blood from a healthy donor was centrifuged at 1,600 g for 10 min and plasma was discarded. The remaining RBCs were washed 4 times with 1 ml 1×PBS (HyClone), then the pallet after the last wash was resuspended with 750 ul of 1×PBS. 2% RBCs suspension was prepared by adding 200 ul of washed cells to 9.8 mL of 1×PBS. […] of 2% RBCs were added to each well (n=3) containing diluted peptides resulting in final peptide concentration of 100, 10, and 1 μg/ml. 2% RBCs with 1×PBS alone served as the negative control (No peptide), and 2% RBC in deionized water as the positive control, leading to full lysis. The plate was incubated for 1 h at 37 C and then centrifuged at 1,000 rpm for 2 min. The supernatant was transferred to a fresh regular 96 well plate and read at OD540 as previously reported (Dean et al., 2011). Student's t-test was used to determine whether points were statistically significant.

Series [2] concerns E. coli O157:H7 51659. Briefly: EC50 antimicrobial activity assay (low salt, 10 mM sodium phosphate). Type of series: cell-based, Escherichia coli. Conditions: MDR E. coli, 3 h. How it is done:
(§1) Staphylococcus aureus ATCC 33592 (MDR) and BAA-1718, E. coli ATCC 51659 (MDR) and 4,157 were purchased from the American Type Culture Collection (Manassas, VA, United States). All strains are reference strains. Bacteria were grown in Tryptic Soy Broth (BD 211825), except E. coli 4157 which was grown in Nutrient Broth (Difco 234000), overnight in a shaking incubator (37 C). Bacteria were aliquoted, mixed with glycerol (final concentration of 20% of glycerol) and frozen at −80 C and enumerated via serial dilution and plating prior to experimentation.
The antimicrobial activity of the PHNX peptides and LL-37 (AnaSpec 61302) against bacteria was determined as previously described (Barksdale et al., 2016, 2017). […] Serial dilutions were then prepared in 1× Dulbecco's PBS and 8 ul of each dilution was spotted in triplicate on Tryptic Soy Agar plates, which were incubated (37 C, 24 h) and CFUs were counted (Barksdale et al., 2016, 2017). Bacterial survival at each peptide concentration was calculated based on the ratio of the number of colonies on each experimental plate and the average number of colonies observed for assay cultures lacking peptide. […] EC50 values were determined by fitting the data from the antimicrobial assays to a standard sigmoidal dose-response curve. […]

In series [3] the test system is S. aureus MRSA 33592. Format: cell-based, Staphylococcus aureus. As to conditions: low salt, 10 mM sodium phosphate, 3 h. How it is done: as §1
The antimicrobial activity of the PHNX peptides and LL-37 (AnaSpec 61302) against bacteria was determined as previously described (Barksdale et al., 2016, 2017). Briefly, 1×10^5 CFU per well of bacteria were incubated with different peptide concentrations (n=3) in a 50-ul solution of 10 mM sodium phosphate buffer (3 h, 37 C). Serial dilutions were then prepared in 1× Dulbecco's PBS and 8 ul of each dilution was spotted in triplicate on Tryptic Soy Agar plates, which were incubated (37 C, 24 h) and CFUs were counted (Barksdale et al., 2016, 2017). Bacterial survival at each peptide concentration was calculated based on the ratio of the number of colonies on each experimental plate and the average number of colonies observed for assay cultures lacking peptide. The peptide concentration required to kill 50% of the viable bacteria in the assay cultures (EC5O) was determined by plotting percent survival as a function of the log of peptide concentration (log μg/ml) and fitting the data using GraphPad Prism 6 (GraphPad Software Inc., San Diego, CA, United States). For the purpose of graphing, samples that had no peptide (0 μg/ml) are plotted at 1×10^−7 μg/ml peptide. EC50 values were determined by fitting the data from the antimicrobial assays to a standard sigmoidal dose-response curve. […] Wells containing only 10 mM sodium phosphate buffer were used as sterility control.

Series [4] concerns E. coli O157:H7 51659. Briefly: Antibacterial screening at 100 μg/ml. Type of series: cell-based, Escherichia coli. As to conditions: for bactericidal activity: 100 μg/ml, MDR E. coli. How it is done:
as §1
(§2) The antibacterial screening test of the peptides (n=3) was first determined at a final peptide concentration of 100 μg/ml and a final bacterial concentration of 5×10^5 CFU/mL in Difco Mueller Hinton Broth (BD 275730) in a 96 well plate. The plate was incubated for 16-20 h at 37 C and then read on a spectrophotometer at OD600 nm. […] Wells containing medium only were used as sterility control, in the wells around the edge of the plates. LL-37 was used as a control in the first run of experiments against the MDR bacterial strains (Turner et al., 1998). […] The sequence of BF-CATH was derived from DBAASP database listed as cathelicidin-BF-34 with the following sequence: […]

The subject of series [5] is S. aureus MRSA 33592. The series is described as follows: Antibacterial screening at 100 μg/ml. Format: cell-based, Staphylococcus aureus. As to conditions: MDR S. aureus. How it is done: as §1, §2
The subject of series [6] is MDR E. coli 51659. Format: cell-based, Escherichia coli. Conditions: MDR E. coli O157:H7 51659, Mueller Hinton Broth (high salt). How it is done:
as §1
(§3) The full range MIC activity testing of the peptides was then determined as previously reported using the Mueller Hinton Broth (BD 275730) in a 96 well plate following the CLSI protocol (Wiegand et al., 2008). Enumerated bacteria were diluted in MHB and 50 ul of 1×10^6 CFU/mL (5×10^4 CFU) was added to each well with 50 ul of a decreasing series of twofold peptide concentration. The plate was incubated for 16-20 h at 37 C and then read on a spectrophotometer at OD600 nm.

For series [7], the system named is S. aureus 33592. Type of series: cell-based, Staphylococcus aureus. As to conditions: MDR S. aureus (MRSA) 33592, Mueller Hinton Broth. How it is done:
as §1, §3

Series [8] deals with S. aureus BAA-1718. Format: cell-based, Staphylococcus aureus. As to conditions: antibiotic susceptible S. aureus BAA-1718, Mueller Hinton Broth. How it is done:
as §1, §3

The subject of series [9] is E. coli 4157. Type of series: cell-based, Escherichia coli. How it is done:
as §1, §3

Series [10] concerns E. coli ATCC 25922. As to conditions: E. coli ATCC 25922 (Wang et al., 2008); cited from earlier work.
The test system of series [11] is E. coli 4157. Briefly: Antibacterial screening at 100 μg/ml. Type of series: cell-based, Escherichia coli. Conditions: peptide 100 μg/ml. How it is done:
as §1, §2

[12] abbreviates: peptide 1 μg/ml, 2% human RBCs (EDTA), 1 h.

Turning to FLLKLGLGKKKLL [PHNX-4], the hemolysis entry in series [1] is reported as “higher hemolytic activity”.
For `CC[C@H](C)[C@H](NC(=O)[C@H](CCCCN)NC(=O)[C@H](CCC(=O)O)NC(=O)[C@H](CCCCN)NC(=O)[C@H](CO)NC(=O)[C@H](CCCCN)NC(=O)[C@H](CCCNC(=N)N)NC(=O)[C@H](Cc1ccccc1)NC(=O)[C@H](Cc1ccccc1)NC(=O)[C@H](CC(=O)O)NC(=O)CNC(=O)[C@H](CC(C)C)NC(=O)[C@@H](N)CC(C)C)C(=O)NCC(=O)N[C@@H](CCCCN)C(=O)N[C@@H](CCC(=O)O)C(=O)N[C@@H](Cc1ccccc1)C(=O)N[C@@H](CCCCN)C(=O)N[C@@H](CCCNC(=N)N)C(=O)N[C@H](C(=O)N[C@H](C(=O)N[C@@H](CCC(N)=O)C(=O)N[C@@H](CCCNC(=N)N)C(=O)N[C@H](C(=O)N[C@@H](CCCCN)C(=O)N[C@@H](CC(=O)O)C(=O)N[C@@H](Cc1ccccc1)C(=O)N[C@@H](CC(C)C)C(=O)N[C@@H](CCCNC(=N)N)C(=O)N[C@@H](CC(N)=O)C(=O)N[C@@H](CC(C)C)C(=O)N[C@H](C(=O)N1CCC[C@H]1C(=O)N[C@@H](CCCNC(=N)N)C(=O)N[C@H](C(=O)N[C@@H](CCC(=O)O)C(=O)N[C@@H](CO)C(=O)O)[C@@H](C)O)C(C)C)[C@@H](C)CC)C(C)C)[C@@H](C)CC` [LL-37, reference compound], the hemolysis entry is “negligible hemolysis” in series [1] (setting [12]) and “approximately 40%” in series [1] (peptide 100 μg/ml, 2% human RBCs (EDTA), 1 h).
As for FGKLLKLGKGLKG [PHNX-3], the EC50 entry in [2] and in series [3] was “no activity” throughout.
On to FLIKILKGGKGGK [PHNX-5], for which the EC50 in series [3] is > 10 µg/mL. For the same compound, the hemolysis result in [1] is on record as “higher hemolytic activity”.
For “VRLIVAVRIWRR-NH2 (C-terminus assumed) [IDR-1018, reference compound]”, the bactericidal activity in [4] and in series [5] was 100% throughout. Also, the hemolysis result in [1] (setting [12]) is given as “negligible hemolysis”.
Turning to FIGAIASYLKKFR [PHNX-6], the EC50 in [3] came to 7.95 µg/mL.
For GVVDIIKGAGKKFAKGLAGKIANKK [PHNX-7], in [3], the EC50 came to 2.09 µg/mL. In series [6], the MIC was > 64 µg/mL. Further, in series [1], the hemolysis entry is on record as “higher hemolytic activity”.
As to “KRFKKFFRKLKKSVKKRAKEFFKKPRVIGVSIPF [BF-CATH, reference compound]”, the MIC result is “not very effective” in series [7]; “not very effective” in [8]; “strong antimicrobial activity” in series [6]; “strong antimicrobial activity” in series [9] (antibiotic susceptible E. coli 4157, Mueller Hinton Broth). Moreover, the bactericidal activity in [4] and in series [5] was 100% each time. Also, in series [10], the “previously reported antimicrobial activity level” value is 2.3 µg/mL.
Consider FGKLLKLGKGLGG [PHNX-2], for which the EC50 result in series [2] and in series [3] was “no activity” in each case.
With `CC[C@H](C)[C@H](NC(=O)[C@H](CCCCN)NC(=O)[C@H](CC(=O)O)NC(=O)[C@H](CC(C)C)NC(=O)[C@H](CC(C)C)NC(=O)[C@H](CCC(N)=O)NC(=O)CNC(=O)[C@H](C)NC(=O)[C@H](CC(C)C)NC(=O)[C@H](CC(N)=O)NC(=O)[C@H](CCCCN)NC(=O)[C@H](C)NC(=O)[C@H](C)NC(=O)[C@H](CC(N)=O)NC(=O)[C@H](CCCCN)NC(=O)[C@@H](NC(=O)[C@@H](NC(=O)[C@H](CC(=O)O)NC(=O)[C@H](CCSC)NC(=O)[C@H](CC(C)C)NC(=O)CN)[C@@H](C)O)C(C)C)C(=O)N[C@@H](CCCCN)C(=O)N[C@H]1CSSC[C@@H](C(=O)O)NC(=O)CNC(=O)[C@H]([C@@H](C)O)NC(=O)[C@H]([C@@H](C)CC)NC(=O)[C@H](CCCCN)NC1=O` [PHNX-8] (H-GLMDTVKNAAKNLAGQLLDKIKCKITGC-OH; disulfide 23-28 (inferred); N-terminus and C-terminus assumed), the MIC entry in series [7] is “without any activity; also recorded: no activity”; in [8], “without any activity; also recorded: no activity”; in [9] (4157), 32 µg/mL (≈ 10.9 µM). For the same compound, the “growth inhibition in the screen (in words)” value in series [4] (peptide 100 μg/ml, MDR E. coli 51659) is given as “showed activity”; in series [11] (E. coli 4157), “showed activity”. Further, the bacterial survival is on record as ~0% in [4] (peptide 100 μg/ml, antibiotic resistant E. coli O157:H7 51659) and ~0% in series [11] (antibiotic susceptible E. coli 4157). The hemolysis result in [1] was “higher hemolytic activity”.
